Laboratory results taken from ChEMBL document CHEMBL3352520, “CoMFA and CoMSIA analysis of ACE-inhibitory, antimicrobial and bitter-tasting peptides” (Eur J Med Chem, 2014).
Residues, ends and D or L forms follow the SMILES beside them.

Target: Angiotensin-converting enzyme (Homo sapiens) (UniProt P12821)
Experiment: Inhibition of ACE (unknown origin)
Design: unit not given here

Angiotensin-converting enzyme (Homo sapiens), sequence (P12821 whole entry): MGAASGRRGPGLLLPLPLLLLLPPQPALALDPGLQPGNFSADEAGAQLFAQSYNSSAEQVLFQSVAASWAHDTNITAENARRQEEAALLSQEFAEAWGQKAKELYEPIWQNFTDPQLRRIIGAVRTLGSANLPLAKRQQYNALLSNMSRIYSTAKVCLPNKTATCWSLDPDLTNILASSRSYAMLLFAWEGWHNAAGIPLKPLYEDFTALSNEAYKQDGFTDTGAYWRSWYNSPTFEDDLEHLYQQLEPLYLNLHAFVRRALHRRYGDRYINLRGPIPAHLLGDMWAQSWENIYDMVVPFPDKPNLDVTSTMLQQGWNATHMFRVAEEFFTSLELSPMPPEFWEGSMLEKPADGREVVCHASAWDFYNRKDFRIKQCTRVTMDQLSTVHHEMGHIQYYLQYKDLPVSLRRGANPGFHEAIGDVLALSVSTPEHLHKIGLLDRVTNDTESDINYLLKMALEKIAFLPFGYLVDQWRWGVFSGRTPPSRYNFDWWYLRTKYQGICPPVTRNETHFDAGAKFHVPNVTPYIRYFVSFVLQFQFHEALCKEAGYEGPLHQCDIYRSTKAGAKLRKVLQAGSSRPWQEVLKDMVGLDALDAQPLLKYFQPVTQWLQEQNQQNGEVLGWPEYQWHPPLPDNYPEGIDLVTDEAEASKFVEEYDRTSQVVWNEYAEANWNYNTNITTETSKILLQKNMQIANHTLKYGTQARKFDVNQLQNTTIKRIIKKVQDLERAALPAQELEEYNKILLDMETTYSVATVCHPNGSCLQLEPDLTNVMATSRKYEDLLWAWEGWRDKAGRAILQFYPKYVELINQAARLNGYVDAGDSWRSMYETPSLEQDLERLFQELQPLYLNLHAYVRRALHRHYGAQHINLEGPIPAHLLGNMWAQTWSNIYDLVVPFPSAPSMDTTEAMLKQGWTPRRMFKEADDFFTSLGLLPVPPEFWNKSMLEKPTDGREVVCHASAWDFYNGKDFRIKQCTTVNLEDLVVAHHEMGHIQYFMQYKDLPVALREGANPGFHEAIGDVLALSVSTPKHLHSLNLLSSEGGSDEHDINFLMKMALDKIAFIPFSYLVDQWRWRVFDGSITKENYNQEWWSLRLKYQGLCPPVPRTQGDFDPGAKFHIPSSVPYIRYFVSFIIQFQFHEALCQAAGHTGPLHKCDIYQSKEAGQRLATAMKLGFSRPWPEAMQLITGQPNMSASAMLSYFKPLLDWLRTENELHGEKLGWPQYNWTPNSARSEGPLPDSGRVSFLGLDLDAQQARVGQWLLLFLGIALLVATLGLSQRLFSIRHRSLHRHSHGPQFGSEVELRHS

| Compound | logIC50 |
| --- | --- |
| CC[C@H](C)[C@H](N)C(=O)N[C@@H](Cc1c[nH]c2ccccc12)C(=O)O | 0.67 |
| C[C@H](N)C(=O)N[C@@H](Cc1ccccc1)C(=O)O | 1.88 |
| NC(N)=NCCC[C@H](N)C(=O)N[C@@H](Cc1ccccc1)C(=O)O | 1.97 |
| NCCCC[C@H](N)C(=O)N[C@@H](Cc1ccccc1)C(=O)O | 1.45 |
| CC(C)[C@H](NC(=O)[C@H](C)N)C(=O)NCC(=O)N1CCC[C@H]1C(=O)O (H-AVGP-OH) | 0.49 |
| C[C@H](N)C(=O)N[C@@H](Cc1c[nH]c2ccccc12)C(=O)O (H-Ala-Trp-OH) | 1.08 |
| CC(C)[C@H](NC(=O)[C@H](C)N)C(=O)N1CCC[C@H]1C(=O)O (H-Ala-Val-Pro-OH) | 2.53 |
| NC(N)=NCCC[C@H](N)C(=O)N1CCC[C@H]1C(=O)O (H-Arg-Pro-OH) | 1.32 |
| NC(N)=NCCC[C@H](N)C(=O)N[C@@H](Cc1c[nH]c2ccccc12)C(=O)O (H-Arg-Trp-OH) | 1.2 |
| N=C(N)NCCC[C@H](N)C(=O)N[C@@H](Cc1ccc(O)cc1)C(=O)O (H-Arg-Tyr-OH) | 1.71 |
| NC(=O)C[C@H](N)C(=O)N[C@@H](Cc1ccccc1)C(=O)O (H-Asn-Phe-OH) | 1.67 |
| NC(=O)C[C@H](N)C(=O)N[C@@H](Cc1ccc(O)cc1)C(=O)O (H-Asn-Tyr-OH) | 1.51 |
| CC(C)C[C@H](NC(=O)[C@@H](N)CC(=O)O)C(=O)N1CCC[C@H]1C(=O)O (H-Asp-Leu-Pro-OH) | 0.68 |
| N[C@@H](CC(=O)O)C(=O)N[C@@H](Cc1ccc(O)cc1)C(=O)O (H-Asp-Tyr-OH) | 2 |
| CC(C)[C@H](NC(=O)[C@@H](N)Cc1ccccc1)C(=O)N[C@@H](C)C(=O)N1CCC[C@H]1C(=O)O (H-FVAP-OH) | 1 |
| C[C@H](NC(=O)[C@H](Cc1c[nH]c2ccccc12)NC(=O)CN)C(=O)N1CCC[C@H]1C(=O)O (H-GWAP-OH) | 0.59 |
| NCCCC[C@H](NC(=O)CN)C(=O)N1CCC[C@H]1C(=O)O (H-Gly-Lys-Pro-OH) | 2.55 |
| NCC(=O)N[C@@H](Cc1c[nH]c2ccccc12)C(=O)O (H-Gly-Trp-OH) | 1.4 |
| NCC(=O)N[C@@H](Cc1ccc(O)cc1)C(=O)O (H-Gly-Tyr-OH) | 2.32 |
| CC[C@H](C)[C@H](N)C(=O)N[C@@H](CC(C)C)C(=O)N1CCC[C@H]1C(=O)N1CCC[C@H]1C(=O)O (H-ILPP-OH) | 2.24 |
| CC[C@H](C)[C@H](N)C(=O)N[C@@H](CCCNC(=N)N)C(=O)N1CCC[C@H]1C(=O)O (H-Ile-Arg-Pro-OH) | -0.13 |
| CC[C@H](C)[C@H](N)C(=O)N[C@@H](CCCCN)C(=O)N1CCC[C@H]1C(=O)O (H-Ile-Lys-Pro-OH) | 0.84 |

| Compound | logIC50 |
| --- | --- |
| CC[C@H](C)[C@H](N)C(=O)N[C@@H](Cc1ccc(O)cc1)C(=O)O (H-Ile-Tyr-OH) | 0.79 |
| CC(C)C[C@H](N)C(=O)N[C@H](C(=O)N1CCC[C@H]1C(=O)N1CCC[C@H]1C(=O)O)C(C)C (H-LVPP-OH) | 2.1 |
| CC(C)C[C@H](N)C(=O)N[C@@H](C)C(=O)N1CCC[C@H]1C(=O)O (H-Leu-Ala-Pro-OH) | 0.54 |
| CC(C)C[C@H](N)C(=O)N[C@@H](CC(N)=O)C(=O)N1CCC[C@H]1C(=O)O (H-Leu-Asn-Pro-OH) | 1.76 |
| CC(C)C[C@H](N)C(=O)N[C@@H](CCC(N)=O)C(=O)N1CCC[C@H]1C(=O)O (H-Leu-Gln-Pro-OH) | 0.28 |
| CC(C)C[C@H](N)C(=O)N[C@@H](CCC(=O)O)C(=O)N1CCC[C@H]1C(=O)O (H-Leu-Glu-Pro-OH) | 0.28 |
| CC(C)C[C@H](N)C(=O)N[C@@H](CO)C(=O)N1CCC[C@H]1C(=O)O (H-Leu-Ser-Pro-OH) | 0.23 |
| CC(C)C[C@H](N)C(=O)N[C@@H](Cc1ccc(O)cc1)C(=O)N1CCC[C@H]1C(=O)O (H-Leu-Tyr-Pro-OH) | 0.82 |
| CSCC[C@H](N)C(=O)N[C@@H](CC(N)=O)C(=O)N1CCC[C@H]1C(=O)O (H-Met-Asn-Pro-OH) | 1.82 |
| CSCC[C@H](N)C(=O)N[C@@H](Cc1ccccc1)C(=O)O (H-Met-Phe-OH) | 1.65 |
| NCCCC[C@H](NC(=O)[C@@H]1CCCN1)C(=O)N[C@@H](Cc1cnc[nH]1)C(=O)N1CCC[C@H]1C(=O)O (H-PKHP-OH) | 2.85 |
| NC(=O)CC[C@H](NC(=O)[C@@H](N)Cc1ccccc1)C(=O)N1CCC[C@H]1C(=O)O (H-Phe-Gln-Pro-OH) | 1.08 |
| N[C@@H](Cc1ccccc1)C(=O)N[C@@H](CCC(=O)O)C(=O)N1CCC[C@H]1C(=O)O (H-Phe-Glu-Pro-OH) | 1.08 |
| N[C@@H](Cc1ccccc1)C(=O)N1CCC[C@H]1C(=O)O (H-Phe-Pro-OH) | 2.5 |
| N[C@@H](Cc1ccccc1)C(=O)N[C@@H](Cc1ccc(O)cc1)C(=O)O (H-Phe-Tyr-OH) | 1.4 |
| N[C@@H](CO)C(=O)N[C@@H](Cc1ccc(O)cc1)C(=O)O (H-Ser-Tyr-OH) | 1.82 |
| C[C@@H](O)[C@H](N)C(=O)N1CCC[C@H]1C(=O)O (H-Thr-Pro-OH) | 2.46 |
| N[C@@H](Cc1ccc(O)cc1)C(=O)N1CCC[C@H]1C(=O)O (H-Tyr-Pro-OH) | 2.86 |
| CC(C)[C@H](N)C(=O)N[C@@H](CO)C(=O)N[C@@H](CO)C(=O)N1CCC[C@H]1C(=O)O (H-VSSP-OH) | 1 |
| CC(C)[C@H](N)C(=O)N[C@H](C(=O)N1CCC[C@H]1C(=O)N1CCC[C@H]1C(=O)O)C(C)C (H-VVPP-OH) | 2.45 |
| CC(C)[C@H](N)C(=O)N[C@@H](CCCNC(=N)N)C(=O)N1CCC[C@H]1C(=O)O (H-Val-Arg-Pro-OH) | 0.34 |
| CSCC[C@H](NC(=O)[C@@H](N)C(C)C)C(=O)N1CCC[C@H]1C(=O)O (H-Val-Met-Pro-OH) | 1.46 |

| Compound | logIC50 |
| --- | --- |
| CC(C)[C@H](N)C(=O)N1CCC[C@H]1C(=O)O (H-Val-Pro-OH) | 2.62 |
| CC(C)[C@H](N)C(=O)N[C@@H](CO)C(=O)N1CCC[C@H]1C(=O)O (H-Val-Ser-Pro-OH) | 1 |
| CC(C)[C@H](N)C(=O)N[C@@H](Cc1ccc(O)cc1)C(=O)O (H-Val-Tyr-OH) | 1.2 |
| CC(C)[C@H](N)C(=O)N[C@@H](Cc1ccc(O)cc1)C(=O)N1CCC[C@H]1C(=O)O (H-Val-Tyr-Pro-OH) | 2.46 |
| H-DKIHP-OH | 2.05 |
| H-DYGLYP-OH | 1.79 |
| H-FFVAP-OH | 0.78 |
| H-LALPP-OH | 2.9 |
| H-LHLPGP-OH | 0.28 |
| H-LHLPLP-OH | 0.57 |
| H-LHLPYP-OH | 0.36 |
| H-LHLWLP-OH | 0.95 |
| H-LHLYLP-OH | 1.28 |
| H-PVVVPP-OH | 2.07 |
| H-SKVPP-OH | 1.87 |
| H-TKVIP-OH | 2.6 |
| H-VIEKYP-OH | 2.24 |
| H-VLIVP-OH | 2.23 |
| H-VLPIP-OH | 1.49 |
| H-VLPYP-OH | 1.56 |
| H-VRGPFP-OH | 2.77 |

The remaining lines, values ahead:

| logIC50 | Compound |
| --- | --- |
| 1.24 | CC(C)C[C@H](N)C(=O)N[C@@H](Cc1c[nH]c2ccccc12)C(=O)O |
| 1.51 | CC(C)C[C@H](N)C(=O)N[C@@H](Cc1ccc(O)cc1)C(=O)O |
| 2.38 | CC(C)C[C@H](NC(=O)[C@H](C)N)C(=O)N1CCC[C@H]1C(=O)O (H-Ala-Leu-Pro-OH) |
| 1.28 | C[C@H](N)C(=O)N[C@@H](Cc1ccc(O)cc1)C(=O)O (H-Ala-Tyr-OH) |
| 2.56 | N[C@@H](CC(=O)O)C(=O)N[C@@H](Cc1ccccc1)C(=O)O (H-Asp-Phe-OH) |
| 1.3 | N=C(N)NCCC[C@H](NC(=O)CN)C(=O)N1CCC[C@H]1C(=O)O (H-Gly-Arg-Pro-OH) |
| 2.51 | NCC(=O)N[C@@H](CCC(=O)O)C(=O)N1CCC[C@H]1C(=O)O (H-Gly-Glu-Pro-OH) |
| 2.44 | NCC(=O)N[C@@H](Cc1ccccc1)C(=O)O (H-Gly-Phe-OH) |
| 2.56 | NCC(=O)N1CCC[C@H]1C(=O)O (H-Gly-Pro-OH) |
| 1.42 | N[C@@H](Cc1cnc[nH]1)C(=O)N[C@@H](Cc1ccc(O)cc1)C(=O)O (H-His-Tyr-OH) |
| 0.43 | CC[C@H](C)[C@H](N)C(=O)N[C@@H](C)C(=O)N1CCC[C@H]1C(=O)O (H-Ile-Ala-Pro-OH) |
| 0.2 | CC[C@H](C)[C@H](N)C(=O)N[C@@H](CCC(=O)O)C(=O)N1CCC[C@H]1C(=O)O (H-Ile-Glu-Pro-OH) |
| 2.11 | CC[C@H](C)[C@H](N)C(=O)N1CCC[C@H]1C(=O)O (H-Ile-Pro-OH) |
| -0.57 | CC(C)C[C@H](N)C(=O)N[C@@H](CCCN=C(N)N)C(=O)N1CCC[C@H]1C(=O)O (H-Leu-Arg-Pro-OH) |
| 0.6 | CC(C)C[C@H](N)C(=O)N[C@@H](CCCCN)C(=O)N1CCC[C@H]1C(=O)O (H-Leu-Lys-Pro-OH) |
| 1.34 | NCCCC[C@H](N)C(=O)N1CCC[C@H]1C(=O)O (H-Lys-Pro-OH) |
| 1 | CSCC[C@H](N)C(=O)N[C@@H](Cc1c[nH]c2ccccc12)C(=O)O (H-Met-Trp-OH) |
| 0.58 | C[C@H](NC(=O)[C@@H](N)Cc1ccccc1)C(=O)N1CCC[C@H]1C(=O)O (H-Phe-Ala-Pro-OH) |

| logIC50 | Compound |
| --- | --- |
| 2.93 | N[C@@H](CO)C(=O)N1CCC[C@H]1C(=O)N[C@@H](Cc1ccc(O)cc1)C(=O)N1CCC[C@H]1C(=O)O (H-SPYP-OH) |
| 2.32 | C[C@@H](O)[C@H](N)C(=O)N[C@@H](CC(N)=O)C(=O)N1CCC[C@H]1C(=O)O (H-Thr-Asn-Pro-OH) |
| 1.95 | C[C@@H](O)[C@H](N)C(=O)N[C@@H](Cc1ccccc1)C(=O)O (H-Thr-Phe-OH) |
| 1.42 | CC(C)[C@H](N)C(=O)NCC(=O)N1CCC[C@H]1C(=O)O (H-Val-Gly-Pro-OH) |
| 0.96 | CC(C)[C@H](N)C(=O)N[C@@H](Cc1ccccc1)C(=O)O (H-Val-Phe-OH) |
| 2.8 | H-APVPP-OH |
| 1.9 | H-AVPYP-OH |
| 2.4 | H-GRVMP-OH |
| 2.04 | H-HQIYP-OH |
| 0.34 | H-IAYKP-OH |
| 1.81 | H-LAYFYP-OH |
| 0.78 | H-LHLPAP-OH |
| 2.53 | H-PQPIP-OH |
| 2.04 | H-PVPQP-OH |
| 1.66 | H-RPQIPP-OH |
| 0.65 | H-VHLAP-OH |
| 1.26 | H-VHLPP-OH |
